Data on 45 molecules can be found in US8916702B2 (priority 2012, dated 2014).

The first experiment deals with HCV pseudoparticles (genotype 1a HCV E1 and E2 envelope, H77C isolate). In words: microbe, parasite or virus in culture. Conditions: Hepatitis C virus, Huh-7, 48 h, HCV pseudoparticles, Huh7 cells, luciferase 2 days after infection; average of duplicates. It counts as cell-based.
`O=C(NCC[C@H](NC(=O)c1ccc(Nc2nc(NC3(c4ccc(Cl)cc4)CC3)nc(OCC(F)(F)F)n2)cc1)C(=O)O)C(=O)Nc1cccc(-c2cccnc2)c1` [Compound 3652]: the midpoint of the response, the EC50, lay at 0.45 nM.
In the case of `CN(C)CCOc1ccc(NC(=O)C(=O)NCC[C@H](NC(=O)c2ccc(Nc3nc(NC4(c5ccc(Cl)cc5)CC4)nc(OCC(F)(F)F)n3)cc2)C(=O)O)cn1` [Compound 3660], the response was half-maximal at 1.67 nM (EC50).
The same measure, in the same setting: as for `Cc1ccc(NC(=O)C(=O)NCC(C)(C)CNC(=O)c2ccc(Nc3nc(NC4(c5ccc(Cl)cc5)CC4)nc(OCC(F)(F)F)n3)cc2F)c(Cl)c1` [Compound 3664], the figure is 0.038 nM.
The same measure, in the same setting: next, `Cc1nnc(-c2ccc(NC(=O)C(=O)NCC(C)(C)CNC(=O)c3ccc(Nc4nc(NC5(c6ccc(Cl)cc6)CC5)nc(OCC(F)(F)F)n4)cc3)cc2)[nH]1` [Compound 3674]: 0.15 nM; `COC(=O)[C@H](CNC(=O)C(=O)Nc1ccc(OCCN2C(=O)c3ccccc3C2=O)nc1)NC(=O)c1ccc(Nc2nc(NC3(c4ccc(Cl)cc4)CC3)nc(OCC(F)(F)F)n2)cc1` [Compound 3682]: 0.31 nM.
Still for that read-out and setting: next, `CCc1cccc(NC(=O)C(=O)NC[C@H](NC(=O)c2ccc(Nc3nc(NC4(c5ccc(Cl)cc5)CC4)nc(OCC(F)(F)F)n3)cc2)C(=O)OC)c1` [Compound 3688]: 0.97 nM; `COC(=O)[C@H](CNC(=O)C(=O)Nc1cccc(Oc2ccccc2)c1)NC(=O)c1ccc(Nc2nc(NC3(c4ccc(Cl)cc4)CC3)nc(OCC(F)(F)F)n2)cc1` [Compound 3694]: 2.23 nM.

The same experiment, now with this note: Hepatitis C virus, Huh-7, 48 h, read-out: Activity (EC50 class), HCV pseudoparticles, Huh7 cells, luciferase 2 days after infection; average of duplicates.
As for `O=C(NCC[C@H](NC(=O)c1ccc(Nc2nc(NC3(c4ccc(Cl)cc4)CC3)nc(OCC(F)(F)F)n2)cc1)C(=O)O)C(=O)Nc1cccc(-c2cccnc2)c1` [Compound 3652], the EC50 (commonly the concentration at which the effect is half-maximal) lay within 0.01 to 10 nM.
On the same count and under the same terms, as for `O=C(NCC[C@H](NC(=O)c1ccc(Nc2nc(NC3(c4ccc(Cl)cc4)CC3)nc(OCC(F)(F)F)n2)cc1)C(=O)O)C(=O)Nc1cccc(-n2cnnc2)c1` [Compound 3653], the figure is 0.01 to 10 nM.
`Cc1nc(-c2cccc(NC(=O)C(=O)NCC[C@H](NC(=O)c3ccc(Nc4nc(NC5(c6ccc(Cl)cc6)CC5)nc(OCC(F)(F)F)n4)cc3)C(=O)O)c2)no1` [Compound 3654]: the EC50 was 0.01 to 10 nM.
The same measure, in the same setting: as for `Cn1nnnc1-c1cccc(NC(=O)C(=O)NCC[C@H](NC(=O)c2ccc(Nc3nc(NC4(c5ccc(Cl)cc5)CC4)nc(OCC(F)(F)F)n3)cc2)C(=O)O)c1` [Compound 3655], the figure is 0.01 to 10 nM; as for `O=C(NCC[C@H](NC(=O)c1ccc(Nc2nc(NC3(c4ccc(Cl)cc4)CC3)nc(OCC(F)(F)F)n2)cc1)C(=O)O)C(=O)Nc1cccc(-c2c[nH]cn2)c1` [Compound 3656], 0.01 to 10 nM; as for `CCCNc1ccc(NC(=O)C(=O)NCC[C@H](NC(=O)c2ccc(Nc3nc(NC4(c5ccc(Cl)cc5)CC4)nc(OCC(F)(F)F)n3)cc2)C(=O)O)cn1` [Compound 3657], 0.01 to 10 nM.
As to `CCN(CC)CCOc1cccc(NC(=O)C(=O)NCC[C@H](NC(=O)c2ccc(Nc3nc(NC4(c5ccc(Cl)cc5)CC4)nc(OCC(F)(F)F)n3)cc2)C(=O)O)c1` [Compound 3658], the EC50 is 0.01 to 10 nM.
Regarding `O=C(NCC[C@H](NC(=O)c1ccc(Nc2nc(NC3(c4ccc(Cl)cc4)CC3)nc(OCC(F)(F)F)n2)cc1)C(=O)O)C(=O)Nc1cccc(-n2ccnc2)c1` [Compound 3659], the EC50 is 0.01 to 10 nM.
The same measure, in the same setting: as for `CN(C)CCOc1ccc(NC(=O)C(=O)NCC[C@H](NC(=O)c2ccc(Nc3nc(NC4(c5ccc(Cl)cc5)CC4)nc(OCC(F)(F)F)n3)cc2)C(=O)O)cn1` [Compound 3660], the figure is 0.01 to 10 nM.
The same measure, in the same setting: as for `O=C(NCC[C@H](NC(=O)c1ccc(Nc2nc(NC3(c4ccc(Cl)cc4)CC3)nc(OCC(F)(F)F)n2)cc1)C(=O)O)C(=O)Nc1ccc(OCCN2CCCCC2)nc1` [Compound 3661], the figure is 0.01 to 10 nM; as for `O=C(NCC[C@H](NC(=O)c1ccc(Nc2nc(NC3(c4ccc(Cl)cc4)CC3)nc(OCC(F)(F)F)n2)cc1)C(=O)O)C(=O)Nc1cccc(Oc2cccnc2)c1` [Compound 3662], 0.01 to 10 nM; as for `NC(=O)CCc1cccc(NC(=O)C(=O)NCC[C@H](NC(=O)c2ccc(Nc3nc(NC4(c5ccc(Cl)cc5)CC4)nc(OCC(F)(F)F)n3)cc2)C(=O)O)c1` [Compound 3663], 0.01 to 10 nM.
For the molecule `Cc1ccc(NC(=O)C(=O)NCC(C)(C)CNC(=O)c2ccc(Nc3nc(NC4(c5ccc(Cl)cc5)CC4)nc(OCC(F)(F)F)n3)cc2F)c(Cl)c1` [Compound 3664], the concentration giving a half-maximal response (EC50) lay in the range of 0.01 to 10 nM.
The same measure, in the same setting: next, `COc1cc2nc(NC(=O)C(=O)NCC(C)(C)CNC(=O)c3ccc(Nc4nc(NC5(c6ccc(Cl)cc6)CC5)nc(OCC(F)(F)F)n4)cc3)sc2cc1OC` [Compound 3665]: 0.01 to 10 nM; `CC(C)(CNC(=O)C(=O)Nc1ccc2sccc2c1)CNC(=O)c1ccc(Nc2nc(NC3(c4ccc(Cl)cc4)CC3)nc(OCC(F)(F)F)n2)cc1` [Compound 3666]: 0.01 to 10 nM.
On the same count and under the same terms, as for `CC(C)(CNC(=O)C(=O)Nc1cccc(Oc2ccccc2)c1)CNC(=O)c1ccc(Nc2nc(NC3(c4ccc(Cl)cc4)CC3)nc(OCC(F)(F)F)n2)cc1` [Compound 3667], the figure is 0.01 to 10 nM; as for `CC(=O)c1cccc(NC(=O)C(=O)NCC(C)(C)CNC(=O)c2ccc(Nc3nc(NC4(c5ccc(Cl)cc5)CC4)nc(OCC(F)(F)F)n3)cc2)c1` [Compound 3668], 0.01 to 10 nM.
Still for that read-out and setting: as for `CC(C)(CNC(=O)C(=O)Nc1cccc(C(=O)Nc2ccccc2)c1)CNC(=O)c1ccc(Nc2nc(NC3(c4ccc(Cl)cc4)CC3)nc(OCC(F)(F)F)n2)cc1` [Compound 3669], the figure is 0.01 to 10 nM; as for `C=Cc1cccc(NC(=O)C(=O)NCC(C)(C)CNC(=O)c2ccc(Nc3nc(NC4(c5ccc(Cl)cc5)CC4)nc(OCC(F)(F)F)n3)cc2)c1` [Compound 3670], 0.01 to 10 nM.
For `CC(C)(CNC(=O)C(=O)Nc1ccc(CNC(N)=O)cc1)CNC(=O)c1ccc(Nc2nc(NC3(c4ccc(Cl)cc4)CC3)nc(OCC(F)(F)F)n2)cc1` [Compound 3671], the EC50 lay within 0.01 to 10 nM.
Still for that read-out and setting: as for `CC(C)(CNC(=O)C(=O)Nc1ccc(Oc2ccccc2)cc1)CNC(=O)c1ccc(Nc2nc(NC3(c4ccc(Cl)cc4)CC3)nc(OCC(F)(F)F)n2)cc1` [Compound 3672], the figure is 0.01 to 10 nM; as for `Cc1cc(NC(=O)C(=O)NCC(C)(C)CNC(=O)c2ccc(Nc3nc(NC4(c5ccc(Cl)cc5)CC4)nc(OCC(F)(F)F)n3)cc2)[nH]n1` [Compound 3673], 0.01 to 10 nM.
Regarding `Cc1nnc(-c2ccc(NC(=O)C(=O)NCC(C)(C)CNC(=O)c3ccc(Nc4nc(NC5(c6ccc(Cl)cc6)CC5)nc(OCC(F)(F)F)n4)cc3)cc2)[nH]1` [Compound 3674], the EC50 was in the range of 0.01 to 10 nM.
Still for that read-out and setting: next, `CC(C)(CNC(=O)C(=O)Nc1nc2ccc(O)cc2s1)CNC(=O)c1ccc(Nc2nc(NC3(c4ccc(Cl)cc4)CC3)nc(OCC(F)(F)F)n2)cc1F` [Compound 3676]: 0.01 to 10 nM; `COc1cc2nc(NC(=O)C(=O)NCC(C)(C)CNC(=O)c3ccc(Nc4nc(NC5(c6ccc(Cl)cc6)CC5)nc(OCC(F)(F)F)n4)cc3F)sc2cc1OC` [Compound 3677]: 0.01 to 10 nM; `CC(C)(CNC(=O)C(=O)Nc1nc2ccc(S(N)(=O)=O)cc2s1)CNC(=O)c1ccc(Nc2nc(NC3(c4ccc(Cl)cc4)CC3)nc(OCC(F)(F)F)n2)cc1F` [Compound 3678]: 0.01 to 10 nM.
Consider `COc1cc(NC(=O)C(=O)NCC(C)(C)CNC(=O)c2ccc(Nc3nc(NC4(c5ccc(Cl)cc5)CC4)nc(OCC(F)(F)F)n3)cc2)ccc1-c1ccccc1` [Compound 3679], for which the EC50 lay within 0.01 to 10 nM.
The same measure, in the same setting: as for `COc1cc2sc(NC(=O)C(=O)NCC(C)(C)CNC(=O)c3ccc(Nc4nc(NC5(c6ccc(Cl)cc6)CC5)nc(OCC(F)(F)F)n4)cc3F)nc2cc1Cl` [Compound 3680], the figure is 0.01 to 10 nM.
Same read-out and setting: as for `CC(C)(CNC(=O)C(=O)Nc1nc2c(Cl)ccc(Cl)c2s1)CNC(=O)c1ccc(Nc2nc(NC3(c4ccc(Cl)cc4)CC3)nc(OCC(F)(F)F)n2)cc1F` [Compound 3681], the figure is 0.01 to 10 nM; as for `COC(=O)[C@H](CNC(=O)C(=O)Nc1ccc(OCCN2C(=O)c3ccccc3C2=O)nc1)NC(=O)c1ccc(Nc2nc(NC3(c4ccc(Cl)cc4)CC3)nc(OCC(F)(F)F)n2)cc1` [Compound 3682], 0.01 to 10 nM.
The same measure, in the same setting: as for `COC(=O)[C@H](CNC(=O)C(=O)Nc1ccc(Cl)nc1)NC(=O)c1ccc(Nc2nc(NC3(c4ccc(Cl)cc4)CC3)nc(OCC(F)(F)F)n2)cc1` [Compound 3683], the figure is 0.01 to 10 nM; as for `COC(=O)[C@H](CNC(=O)C(=O)Nc1cccc(Cl)c1)NC(=O)c1ccc(Nc2nc(NC3(c4ccc(Cl)cc4)CC3)nc(OCC(F)(F)F)n2)cc1` [Compound 3685], 0.01 to 10 nM.
Take `COC(=O)[C@H](CNC(=O)C(=O)Nc1cccc(OCc2ccccc2)c1)NC(=O)c1ccc(Nc2nc(NC3(c4ccc(Cl)cc4)CC3)nc(OCC(F)(F)F)n2)cc1` [Compound 3686]: the EC50 is 0.01 to 10 nM.
On the same count and under the same terms, next, `COC(=O)[C@H](CNC(=O)C(=O)Nc1cccc(C)c1)NC(=O)c1ccc(Nc2nc(NC3(c4ccc(Cl)cc4)CC3)nc(OCC(F)(F)F)n2)cc1` [Compound 3687]: 0.01 to 10 nM; `CCc1cccc(NC(=O)C(=O)NC[C@H](NC(=O)c2ccc(Nc3nc(NC4(c5ccc(Cl)cc5)CC4)nc(OCC(F)(F)F)n3)cc2)C(=O)OC)c1` [Compound 3688]: 0.01 to 10 nM.
The same measure, in the same setting: next, `COC(=O)[C@H](CNC(=O)C(=O)Nc1cccc(C(N)=O)c1)NC(=O)c1ccc(Nc2nc(NC3(c4ccc(Cl)cc4)CC3)nc(OCC(F)(F)F)n2)cc1` [Compound 3689]: 0.01 to 10 nM; `C=Cc1cccc(NC(=O)C(=O)NC[C@H](NC(=O)c2ccc(Nc3nc(NC4(c5ccc(Cl)cc5)CC4)nc(OCC(F)(F)F)n3)cc2)C(=O)OC)c1` [Compound 3690]: 0.01 to 10 nM.
Still for that read-out and setting: next, `COC(=O)[C@H](CNC(=O)C(=O)Nc1cccc(C(=O)Nc2ccccc2)c1)NC(=O)c1ccc(Nc2nc(NC3(c4ccc(Cl)cc4)CC3)nc(OCC(F)(F)F)n2)cc1` [Compound 3691]: 0.01 to 10 nM.
Consider `COC(=O)[C@H](CNC(=O)C(=O)Nc1cccc(C(=O)c2ccccc2)c1)NC(=O)c1ccc(Nc2nc(NC3(c4ccc(Cl)cc4)CC3)nc(OCC(F)(F)F)n2)cc1` [Compound 3692], for which the EC50 was in the range of 0.01 to 10 nM.
Still for that read-out and setting: next, `COC(=O)[C@H](CNC(=O)C(=O)Nc1cccc(OC(F)(F)F)c1)NC(=O)c1ccc(Nc2nc(NC3(c4ccc(Cl)cc4)CC3)nc(OCC(F)(F)F)n2)cc1` [Compound 3693]: 0.01 to 10 nM.
On to `COC(=O)[C@H](CNC(=O)C(=O)Nc1cccc(Oc2ccccc2)c1)NC(=O)c1ccc(Nc2nc(NC3(c4ccc(Cl)cc4)CC3)nc(OCC(F)(F)F)n2)cc1` [Compound 3694], for which the EC50 was 0.01 to 10 nM.
Same read-out and setting: as for `COC(=O)[C@H](CNC(=O)C(=O)Nc1cccc(-c2ccccc2)c1)NC(=O)c1ccc(Nc2nc(NC3(c4ccc(Cl)cc4)CC3)nc(OCC(F)(F)F)n2)cc1` [Compound 3695], the figure is 0.01 to 10 nM.
As to `COC(=O)[C@H](CNC(=O)C(=O)Nc1cccc(-c2cnco2)c1)NC(=O)c1ccc(Nc2nc(NC3(c4ccc(Cl)cc4)CC3)nc(OCC(F)(F)F)n2)cc1` [Compound 3696], the EC50 was in the range of 0.01 to 10 nM.
Regarding `COC(=O)[C@H](CNC(=O)C(=O)Nc1ccc(Oc2ccc(Cl)cc2Cl)nc1)NC(=O)c1ccc(Nc2nc(NC3(c4ccc(Cl)cc4)CC3)nc(OCC(F)(F)F)n2)cc1` [Compound 3697], the 50% effective concentration (EC50) lay within 0.01 to 10 nM.
The same measure, in the same setting: as for `COC(=O)[C@H](CNC(=O)C(=O)Nc1ccc(Oc2ccc(C(C)(C)C)cc2)nc1)NC(=O)c1ccc(Nc2nc(NC3(c4ccc(Cl)cc4)CC3)nc(OCC(F)(F)F)n2)cc1` [Compound 3698], the figure is 0.01 to 10 nM.
